# Values of other authors in US20250356483A1, “Quality Control Of In-Vitro Analysis Sample Output” (Sanofi, priority 2022, published 2025).
# System: liver cells
# Conditions: CPZ@60 micro moles
structure (smiles),measurement,value
"CN(C)CCCN1c2ccccc2Sc2ccc(Cl)cc21 [CPZ, Chlorpromazine]",known toxic effect of reference compound (positive control),toxic to liver cells and triggers cholestasis
